The numbers were not newly measured in patent US20010041964A1, “PHARMACOKINETIC-BASED DRUG DESIGN TOOL AND METHOD” (priority 1998, published 2001), which cites them from elsewhere.

The subject of one series is intestinal transport. To be noted: permeability standard.
Series [1] deals with rabbit intestinal tissue (duodenum, jejunum, ileum, colon). The following applies: donor concentration per compound; for Pe (cm/s) Colon: rabbit colon; for Pe (cm/s) Duodenum: rabbit duodenum; for Pe (cm/s) Ileum: rabbit ileum; for Pe (cm/s) Jejunum: rabbit jejunum.
Assay in series [2]: not given
This is another data set of the same source.

Assay in series [3]: not given
The source holds these as a separate data set.

For series [4] the following is noted: oral, human.

Take `O=C[C@H](O)[C@@H](O)[C@H](O)[C@H](O)CO` [D-glucose]: the Transport mechanism result in the series with intestinal transport is given as “Carrier-mediated Influx”. In series [1], the “Pe (cm/s) Colon” value was 9.28e-06 cm/s, the “Pe (cm/s) Duodenum” value was 4.55e-06 cm/s, the “Pe (cm/s) Ileum” value is 1.45e-05 cm/s and the “Pe (cm/s) Jejunum” value was 1.02e-05 cm/s.

As to `Nc1nc2c(ncn2COC(CO)CO)c(=O)[nH]1.[Na]` [Gancyclovir, 9-(1,3-dihydroxy-2-propoxymethyl)guanine, monosodium salt], for the setting “fasted patients, Phase I studies”, the “Bioavailability of fasted patients in clinical trials” value is given as 3-20%. Moreover, under “human clinical study 1505a”, the “Cmax (mcg/ml), Clinical 1505a” value is 0.55 µg/mL and the “Tmax (hrs), Clinical 1505a” value is 1.43 h. Further, where the note is “human clinical study 1505b”, the “Cmax (mcg/ml), Clinical 1505b” value is 0.59 µg/mL and the “Tmax (hrs), Clinical 1505b” value is 1.43 h. Moreover, in series [2] (Appendix 2, mass-volume model), the k12 result is given as “k12 = .839”, the k21 result is “k21 = .67” and the k_elim result is “k_elim = .161”. For the same compound, in series [2] (Table 11), the “Plasma Kinetics Fluid Volume” value was 76,800 ml, the “Plasma Kinetics k12” value was 0.839, the “Plasma Kinetics k21” value is 0.670 and the “Plasma Kinetics kelim” value was 0.161. For the same compound, the In vivo biotransformation entry in series [3] was “no in vivo biotransformation”. Besides, the Absorption entry in series [3] (in vivo) is recorded as “poorly absorbed”.

In the case of `C[C@]12CCC(=O)C=C1CC[C@@H]1[C@@H]2[C@@H](O)C[C@@]2(C)[C@H]1CC[C@]2(O)C(=O)CO` [hydrocortisone], in series [1], the “Pe (cm/s) Colon” value was 3.85e-06 cm/s, the “Pe (cm/s) Duodenum” value was 3e-07 cm/s, the “Pe (cm/s) Ileum” value was 2.91e-06 cm/s and the “Pe (cm/s) Jejunum” value was 1.31e-06 cm/s.

In the case of `OC[C@@H](O)[C@@H](O)[C@H](O)[C@H](O)CO` [mannitol], in series [4], the “Bioavailability in humans when orally administered” value is recorded as “approximately 10%”. For the same compound, the Transport mechanism entry in the series on intestinal transport was “Passive Paracellular”. For the same compound, in series [1], the “Pe (cm/s) Colon” value was 5.53e-06 cm/s, the “Pe (cm/s) Duodenum” value was 1.73e-06 cm/s, the “Pe (cm/s) Ileum” value was 4.02e-06 cm/s and the “Pe (cm/s) Jejunum” value was 3.54e-06 cm/s.
